{
  "source": "patent US20260325605A1",
  "about": "“INHIBITORS” (Zealand Pharma A/S, priority 2022, published 2026)",
  "type_in_all_cases": "cell-based",
  "key": {"Kv1.2": {"biological_target": "T1, Kv1.2 (Homo sapiens, UniProt P16389)", "T1 construct": "expressed in transfected cells", "T1 sequence (P16389 whole entry)": "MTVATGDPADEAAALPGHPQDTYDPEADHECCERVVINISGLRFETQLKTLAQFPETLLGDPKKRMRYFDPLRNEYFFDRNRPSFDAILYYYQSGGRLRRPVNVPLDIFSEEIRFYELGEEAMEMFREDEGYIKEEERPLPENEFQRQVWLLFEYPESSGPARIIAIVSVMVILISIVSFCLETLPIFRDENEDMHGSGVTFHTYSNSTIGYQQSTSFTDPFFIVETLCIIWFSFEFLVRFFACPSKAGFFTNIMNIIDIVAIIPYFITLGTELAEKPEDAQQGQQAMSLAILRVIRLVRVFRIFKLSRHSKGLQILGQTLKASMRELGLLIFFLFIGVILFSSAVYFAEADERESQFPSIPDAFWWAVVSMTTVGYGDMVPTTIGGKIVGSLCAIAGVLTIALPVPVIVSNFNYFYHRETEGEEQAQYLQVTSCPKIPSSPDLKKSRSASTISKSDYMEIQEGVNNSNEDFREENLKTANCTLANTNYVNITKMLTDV", "assay": "Patch clamp assay (QPatch), Kv1.2"}, "[1]": {"tested_on": "human peripheral blood mononuclear cells (PBMCs)", "assay": "Example 3a: IL-2 release from anti-CD3 stimulated human PBMCs", "protocol": "Human peripheral blood mononuclear cells (PBMCs) were used to assess the effects of Kv1.3 inhibitor peptides on T-cell activation as determined by IL-2 (cytokine) release after stimulation with anti-CD3.\nHuman PBMCs were obtained from Precision for Medicine (Frederick, MD). Cells from 5 donors were used. Plate-bound anti-CD3 was used to stimulate bulk T cells in the PBMC preparations. Briefly, 96-well plates were coated with anti-CD3 antibody for 2 hrs at 37° C., using 50 μL of a 0.5 μg/mL anti-CD3 solution diluted in 1×PBS. Thereafter the plates were washed twice.\nCyclosporin A (1 ug/ml) and Vm24 peptide (100 nM) were used as positive controls. Finally, 1×10^5 PBMCs were added to each well in a volume of 100 μL, giving a final volume of 200 μL per well. The plates were incubated for 20-24 hours in a 37° C./5% CO2 incubator. After centrifugation of the plates, 25 μl supernatant was transferred to IL-2 detection plates (MSD Human IL-2 Tissue Culture Kit, cat #K151AHB-2) and IL-2 was measures as described by the manufacturer (Meso Scale Discovery, Rockville, Maryland, USA).\nAll values derive from at least 4 replicates."}, "[2]": {"tested_on": "human peripheral blood mononuclear cells (PBMCs)", "assay": "Example 3b: IL-2 release from anti-CD3 stimulated human PBMCs", "settings": "5 donors, anti-CD3 1 μg/ml, geometric mean, at least 6 replicates", "protocol": "Human peripheral blood mononuclear cells (PBMCs) were used to assess the effects of Kv1.3 inhibitor peptides on T-cell activation as determined by IL-2 release after stimulation with anti-CD3.\nHuman PBMCs were obtained from Precision for Medicine (Frederick, MD). Cells from 5 donors were used. Plate-bound anti-CD3 was used to stimulate bulk T cells in the PBMC preparations. Briefly, 96-well plates were coated with anti-CD3 antibody for app. 16 hours at 5° C., using 50 μl of a 1 μg/ml anti-CD3 solution diluted in PBS. Thereafter the plates were washed twice.\nPeptides were subsequently diluted in medium (RPMI 1640 with Glutamax-I containing, 10% v/v Fetal Bovine Serum, 1% v/v penicillin-streptomycin Solution) and added in a volume of 50 μl. The peptides indicated in Table 4b were used at concentrations ranging from 0.3 pM to 1000 nM (half log dilutions, starting concentrations varying). Cyclosporin A (1 μg/ml) and Vm24 peptide (100 nM) were used as positive controls.\nFinally, 50,000 PBMCs in the same medium were added to each well in a volume of 50 μl, giving a final volume of 100 μl per well. The plates were incubated for 20-24 hours in a 370C/5% CO2 incubator. After centrifugation of the plates, 25 μl supernatant was transferred to IL-2 detection plates (MSD Human IL-2 Tissue Culture Kit, cat #K151AHB-2) and IL-2 was measures as described by the manufacturer (Meso Scale Discovery, Rockville, Maryland, USA).\nAll values derive from at least 6 replicates."}, "Kv1.1": {"biological_target": "T2, Kv1.1 (Homo sapiens, UniProt Q09470)", "T2 construct": "expressed in transfected cells", "T2 sequence (Q09470 whole entry)": "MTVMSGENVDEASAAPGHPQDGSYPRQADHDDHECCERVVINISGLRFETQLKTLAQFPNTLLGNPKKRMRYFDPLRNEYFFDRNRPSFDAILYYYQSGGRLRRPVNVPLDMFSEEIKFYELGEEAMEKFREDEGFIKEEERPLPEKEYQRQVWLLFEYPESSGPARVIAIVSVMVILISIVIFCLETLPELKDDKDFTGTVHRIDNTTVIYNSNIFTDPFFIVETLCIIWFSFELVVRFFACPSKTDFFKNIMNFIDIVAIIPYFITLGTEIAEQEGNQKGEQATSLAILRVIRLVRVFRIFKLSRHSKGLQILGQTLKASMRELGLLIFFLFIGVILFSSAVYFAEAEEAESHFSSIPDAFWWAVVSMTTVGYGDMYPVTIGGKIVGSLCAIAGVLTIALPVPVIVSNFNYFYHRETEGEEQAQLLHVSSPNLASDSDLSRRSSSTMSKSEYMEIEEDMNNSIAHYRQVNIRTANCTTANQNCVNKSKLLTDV", "assay": "Patch clamp assay (QPatch), Kv1.1", "protocol": "(§1) Selectivity of Kv1.3 inhibitor peptides for Kv1.3 over other potassium ion channels (Kv1.1, Kv1.2 and Kv1.6) was determined using patch clamp assay.\n(§2) Chinese Hamster Ovary (CHO) cell lines stably expressing exogenous human α-subunits of each potassium ion channel were grown and passaged under standard culture conditions.\n(§3) The automated, chip-based planar patch clamp device QPatch® was used to quantitate the ionic currents. All recordings were made in the conventional whole-cell configuration after establishment of gigaohm seals. […] During experiments 0.1% (v/v) BSA was included as a vehicle in all external recording solutions. Currents were elicited from a holding potential of −80 mV using a voltage protocol, which shifted the voltage to 30 mV for 500 ms every 15 s.\n(§4) Concentration-response relationships were established by cumulatively applying seven escalating concentrations of test sample to an individual cell with a recording period of 2 min per compound application.\n(§5) The efficacy was determined as the mean charge for the last three sweeps at the end of each concentration application period from the cursor positions. The percent inhibition for each test dose application period was calculated as the reduction in mean cursor value (charge) relative to the cursor value measured at the end of the vehicle period and used to calculate the IC50 from the concentration response curve."}, "Kv1.6": {"biological_target": "T3, Kv1.6 (Homo sapiens, UniProt P17658)", "T3 construct": "expressed in transfected cells", "T3 sequence (P17658 whole entry)": "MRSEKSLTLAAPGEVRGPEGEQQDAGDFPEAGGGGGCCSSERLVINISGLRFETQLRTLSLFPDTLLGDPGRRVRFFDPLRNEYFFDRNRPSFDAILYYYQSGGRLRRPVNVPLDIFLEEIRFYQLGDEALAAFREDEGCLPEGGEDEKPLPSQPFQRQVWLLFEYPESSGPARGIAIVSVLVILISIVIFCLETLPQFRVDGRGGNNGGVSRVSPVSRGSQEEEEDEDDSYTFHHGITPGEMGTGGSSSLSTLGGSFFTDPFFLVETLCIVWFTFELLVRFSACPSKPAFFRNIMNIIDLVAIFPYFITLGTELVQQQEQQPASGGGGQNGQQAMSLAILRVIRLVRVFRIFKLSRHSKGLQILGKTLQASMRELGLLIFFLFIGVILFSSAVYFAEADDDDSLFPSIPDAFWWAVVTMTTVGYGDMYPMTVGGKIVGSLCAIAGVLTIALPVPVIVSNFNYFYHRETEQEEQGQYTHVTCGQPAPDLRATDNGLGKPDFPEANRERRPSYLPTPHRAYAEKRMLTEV", "assay": "Patch clamp assay (QPatch), Kv1.6"}, "Kv1.3": {"biological_target": "T4, Kv1.3 (Homo sapiens, UniProt P22001)", "T4 construct": "expressed in transfected cells", "T4 sequence (P22001 whole entry)": "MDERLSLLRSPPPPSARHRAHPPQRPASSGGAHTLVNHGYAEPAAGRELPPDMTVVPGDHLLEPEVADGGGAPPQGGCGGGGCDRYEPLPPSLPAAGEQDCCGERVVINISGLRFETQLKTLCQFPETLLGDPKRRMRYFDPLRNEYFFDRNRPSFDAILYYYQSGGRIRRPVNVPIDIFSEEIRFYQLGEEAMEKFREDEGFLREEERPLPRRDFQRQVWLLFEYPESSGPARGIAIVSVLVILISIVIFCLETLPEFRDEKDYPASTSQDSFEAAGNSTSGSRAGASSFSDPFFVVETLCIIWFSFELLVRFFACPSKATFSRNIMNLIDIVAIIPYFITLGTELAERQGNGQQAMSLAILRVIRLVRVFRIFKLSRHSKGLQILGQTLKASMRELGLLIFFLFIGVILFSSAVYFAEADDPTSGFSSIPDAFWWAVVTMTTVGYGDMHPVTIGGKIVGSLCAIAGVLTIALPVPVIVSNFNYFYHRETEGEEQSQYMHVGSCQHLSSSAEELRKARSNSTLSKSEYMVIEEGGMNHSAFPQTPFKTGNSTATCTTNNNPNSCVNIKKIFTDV", "assay": "Patch clamp assay (QPatch), Kv1.3", "settings": "CHO cells stably expressing human Kv1.3, read-out: Potency IC50, Kv1.3", "protocol": "as §1, §2, §3, §4, §5"}},
  "data": [
    {"substance": "H-[phosphotyrosyl][8-Amino-3,6-dioxaoctanoyl]RSCIDTIPKSRCTAFQCKHSMKYRLSFCRKTCGTC-NH2 [ShK-186, reference compound]", "values": [
      {"measurement": "IC50", "setting": "Kv1.2; QPatch, CHO cells stably expressing human Kv1.2, read-out: Potency IC50, Kv1.2", "value": 43, "unit": "nM"},
      {"measurement": "Selectivity Kv1.2/Kv1.3", "setting": "Kv1.2; ratio of IC50 Kv1.2/Kv1.3", "value": 682},
      {"measurement": "IC50", "setting": "[1]; human PBMCs, 5 donors, anti-CD3 0.5 μg/mL, geometric mean, at least 4 replicates, read-out: anti-CD3 PBMC/ IL-2 IC50", "value": 0.07, "unit": "nM"},
      {"measurement": "comparison of IC50 (IL-2 secretion) with ShK186 / Moka1", "setting": "[1]; in words", "value": "significantly lower than Moka1"},
      {"measurement": "IC50", "setting": "[2]; listed as ShK186, read-out: anti-CD3 PBMC/IL-2 IC50", "value": 0.05, "unit": "nM"},
      {"measurement": "IC50", "setting": "[2]; read-out: anti-CD3 PBMC/IL-2 IC50", "value": 0.04, "unit": "nM"},
      {"measurement": "IC50", "setting": "Kv1.1; QPatch, CHO cells stably expressing human Kv1.1, read-out: Potency IC50, Kv1.1", "value": 0.31, "unit": "nM"},
      {"measurement": "Selectivity Kv1.1/Kv1.3", "setting": "Kv1.1; ratio of IC50 Kv1.1/Kv1.3", "value": 4.9},
      {"measurement": "IC50", "setting": "Kv1.6; QPatch, CHO cells stably expressing human Kv1.6, read-out: Potency IC50, Kv1.6", "value": 0.45, "unit": "nM"},
      {"measurement": "Selectivity Kv1.6/Kv1.3", "setting": "Kv1.6; ratio of IC50 Kv1.6/Kv1.3", "value": 7.4},
      {"measurement": "IC50", "setting": "Kv1.3", "value": 0.095, "unit": "nM"}
    ]}
  ]
}
